In ChEMBL document CHEMBL1201862, “PubChem BioAssay data set” (2004):
Active and inactive are the calls of the source.

Legend:
[1] = system: HEK293; test: HEK293T cell cytotoxicity, dose response, cytotoxicity control, ATP luminescence, cherry-pick samples (AID 687005); type: functional, cell-based; conditions: Homo sapiens;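 note: cells exposed to compound for 48 hours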
[2] = system: HeLa; test: HeLa cell cytotoxicity, dose response, cytotoxicity control, ATP luminescence, cherry-pick samples (AID 687004); type: functional, cell-based; conditions: Homo sapiens
[3] = HEK293 Cytotoxicity Assay Measured in Cell-Based System Using Plate Reader - 7071-01_Inhibitor_Dose_CherryPick_Activity_Set2.; type: functional
[4] = system: Cryptococcus neoformans; test: PubChem AID 686997; type: functional, organism-based
[5] = biological target: Paired box protein Pax-8 (Homo sapiens, UniProt Q06710); test: inhibitors of PAX8-driven TPO luciferase reporter, dose response, RMG-I cells, cherry-pick (AID 687027); type: functional, cell-based;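 note: luciferase reporter driven by Pax8 target thyroperoxidase promoter measured by SteadyGlo luminescence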
[6] = NIH:OVCAR-3 ovarian cancer cell cytotoxicity, dose response, PAX8 inhibitor project, plate reader, dry powder samples (AID 743044); type: functional, cell-based
[7] = IOSE-T80 ovarian epithelial cell cytotoxicity, dose response, cytotoxicity control for PAX8 inhibitor project, plate reader, dry powder samples (AID 743045); type: functional, cell-based
[8] = A2780 ovarian cancer cell cytotoxicity, dose response, cytotoxicity control, plate reader, dry powder samples (AID 743046); type: functional, cell-based
[9] = inhibitors of CMV-promoter luciferase reporter, dose response, counter-screen for Pax8 inhibitor project, cell-based, HEK293, luminescence, dry powder (AID 743020); type: functional
[10] = non-specific cell cytotoxicity, dose response, cytotoxicity control for PAX8 inhibitor project, plate reader, dry powder samples (AID 743021); type: functional, cell-based
[11] = cytotoxicity in OVCAR8 ovarian cancer cells, dose response, PAX8 project, cell-based, plate reader, dry powder samples (AID 743197); type: functional; conditions: OVCAR-8
[12] = biological target: T1, DNA repair and recombination protein RAD54-like (Homo sapiens, UniProt Q92698); test: inhibitors of human RAD54 branch migration, confirmation, biochemical, fluorescence, cherry-picked samples, dose series (AID 651657); type: functional
T1 sequence (Q92698 whole entry): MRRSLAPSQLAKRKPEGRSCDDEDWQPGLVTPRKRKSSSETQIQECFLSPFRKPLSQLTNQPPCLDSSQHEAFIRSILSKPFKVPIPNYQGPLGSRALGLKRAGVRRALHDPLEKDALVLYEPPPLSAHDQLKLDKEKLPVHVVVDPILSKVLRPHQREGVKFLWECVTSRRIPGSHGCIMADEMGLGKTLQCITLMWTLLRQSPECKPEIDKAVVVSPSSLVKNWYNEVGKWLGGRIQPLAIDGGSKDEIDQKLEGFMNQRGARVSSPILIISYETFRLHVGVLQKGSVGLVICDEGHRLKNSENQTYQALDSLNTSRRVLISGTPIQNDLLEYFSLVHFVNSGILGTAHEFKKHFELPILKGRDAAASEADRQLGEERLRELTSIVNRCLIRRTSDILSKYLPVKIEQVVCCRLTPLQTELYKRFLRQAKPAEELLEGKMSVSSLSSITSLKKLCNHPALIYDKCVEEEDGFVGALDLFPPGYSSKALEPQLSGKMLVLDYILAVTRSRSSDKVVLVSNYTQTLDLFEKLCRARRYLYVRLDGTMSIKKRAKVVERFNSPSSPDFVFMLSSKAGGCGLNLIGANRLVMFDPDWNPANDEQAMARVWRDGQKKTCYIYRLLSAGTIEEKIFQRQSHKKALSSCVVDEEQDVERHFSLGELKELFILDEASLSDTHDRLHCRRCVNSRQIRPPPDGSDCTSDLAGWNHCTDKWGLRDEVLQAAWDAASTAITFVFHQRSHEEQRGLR

[13] = DNA binding of candidate compounds, dose response, artefact control for RAD54 inhibitor project, biochemical, fluorescence polarization, cherry-pick (AID 651673); type: functional
[14] = biological target: T2, DNA repair protein RAD52 homolog (Homo sapiens, UniProt P43351); type: functional, biochemical
T2 sequence (P43351 whole entry): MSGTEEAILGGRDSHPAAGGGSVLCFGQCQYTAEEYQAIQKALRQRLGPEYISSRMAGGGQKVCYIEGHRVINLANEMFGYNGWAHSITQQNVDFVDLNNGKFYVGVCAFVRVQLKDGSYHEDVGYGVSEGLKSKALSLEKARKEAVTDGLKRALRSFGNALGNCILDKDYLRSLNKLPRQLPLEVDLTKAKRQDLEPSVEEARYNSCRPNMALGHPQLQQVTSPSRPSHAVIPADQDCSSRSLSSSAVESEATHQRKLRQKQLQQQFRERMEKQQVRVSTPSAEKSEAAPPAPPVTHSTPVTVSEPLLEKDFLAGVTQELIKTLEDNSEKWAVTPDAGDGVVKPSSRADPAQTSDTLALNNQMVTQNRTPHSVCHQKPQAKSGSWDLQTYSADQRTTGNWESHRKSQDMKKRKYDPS

[15] = biological target: Protein Wnt-3a (Mus musculus, UniProt P27467); test: SAR analysis of small molecule antagonists of Gli-SUFU in a Wnt3a luminescent reporter assay.; type: functional
[16] = T. cruzi growth inhibition in host cells, dose response, cell-based, plate reader, dry powder, set 2 (AID 652275); type: functional
[17] = T. cruzi intracellular amastigote growth inhibition, dose response, imaging, CA-I/72 strain, bovine embryo skeletal muscle, dry powder (AID 651885); type: functional, cell-based
[18] = A549 cell cytotoxicity, dose response, cytotoxicity control, plate reader, cherry-pick, antagonist series (AID 743412); type: functional, cell-based
[19] = LGR2 antagonists, dose response, cell-based, HEK293, CRE-luciferase reporter, cherry pick (AID 743342); type: functional
[20] = MC4R antagonists, dose response, counter-screen for LGR2 antagonist project, cell-based, plate reader, cherry pick (AID 743444); type: functional;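 note: transfected HEK 293 cells stimulated with alpha-MSH peptide; potency of inhibitors of the alpha-MSH evoked signal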
[21] = Cytotoxicity screening for potential Inhibitors of Bacterial Capsule Biogenesis (4).; type: functional

Protein Wnt-3a, sequence (P27467 whole entry): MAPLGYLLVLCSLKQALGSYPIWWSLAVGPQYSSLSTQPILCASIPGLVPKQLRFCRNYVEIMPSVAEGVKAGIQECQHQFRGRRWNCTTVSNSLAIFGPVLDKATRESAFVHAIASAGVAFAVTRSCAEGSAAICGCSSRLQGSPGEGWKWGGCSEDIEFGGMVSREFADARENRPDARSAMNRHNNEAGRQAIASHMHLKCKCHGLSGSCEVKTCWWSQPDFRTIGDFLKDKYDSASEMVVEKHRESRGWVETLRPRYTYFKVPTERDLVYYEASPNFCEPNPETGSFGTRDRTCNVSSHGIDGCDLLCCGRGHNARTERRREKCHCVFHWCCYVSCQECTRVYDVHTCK
Paired box protein Pax-8, sequence (Q06710 whole entry): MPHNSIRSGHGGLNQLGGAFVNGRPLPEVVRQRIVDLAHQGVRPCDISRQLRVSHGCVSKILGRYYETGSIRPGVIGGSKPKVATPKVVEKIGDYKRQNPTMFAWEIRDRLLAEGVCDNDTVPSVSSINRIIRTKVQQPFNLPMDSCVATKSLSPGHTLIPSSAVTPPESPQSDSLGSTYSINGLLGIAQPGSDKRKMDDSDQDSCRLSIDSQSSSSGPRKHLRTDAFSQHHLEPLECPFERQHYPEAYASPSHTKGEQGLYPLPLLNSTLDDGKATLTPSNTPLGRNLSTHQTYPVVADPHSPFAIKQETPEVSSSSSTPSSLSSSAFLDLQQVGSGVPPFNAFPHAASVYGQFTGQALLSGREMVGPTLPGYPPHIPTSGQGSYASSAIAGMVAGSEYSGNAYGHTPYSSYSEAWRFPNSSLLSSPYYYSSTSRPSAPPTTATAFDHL

Question: Which AC50 [1] does the source give for `O=S(=O)(c1ccc(F)cc1)N1C[C@@H]2[C@H](c3ccccc31)[C@@H](CO)N2Cc1ccccc1Cl` here?
Answer: Its AC50 is 18.9 µM (active).

Question: And the AC50 [2]?
Answer: The AC50 was > 47 µM (inactive).

Question: What about the AC50 [3] of the same compound?
Answer: Its AC50 is 18.9 µM (active).

Question: Which AC50 [1] does the source give for `COC(=O)C1=C(C)N(Cc2ccc(F)cc2)C(=S)NC1c1cccc(Br)c1` (stereo not drawn) here?
Answer: Its AC50 is 6.17 µM (active).

Question: What about the AC50 [3] of the same compound?
Answer: Its AC50 is 6.17 µM (active).

Question: What about the AC50 [4] of the same compound?
Answer: Its AC50 is 36.7 µM (active).

Question: With `C[C@@H]1CN([C@H](C)CO)C(=O)c2cc(NC(=O)Nc3ccccc3)ccc2O[C@@H](C)CCCCO[C@@H]1CN(C)Cc1ccc(Cl)c(Cl)c1` as the compound, how does the AC50 [5] read?
Answer: The AC50 was 4.45 µM (active).

Question: What about the AC50 [6] of the same compound?
Answer: Its AC50 is 18.4 µM (active).

Question: What about the AC50 [7] of the same compound?
Answer: The AC50 was 44.5 µM (active).

Question: What about the AC50 [8] of the same compound?
Answer: Its AC50 is 14.9 µM (active).

Question: And the AC50 [9]?
Answer: Its AC50 is 43.4 µM (active).

Question: What about the AC50 [10] of the same compound?
Answer: Its AC50 is 52.3 µM (active).

Question: And the AC50 [11]?
Answer: Its AC50 is 29.6 µM (active).

Question: What does the source list for `c1cncc(Nc2c3ccccc3nc3ccccc23)c1`?
Answer: AC50 [12]: 12.8 µM (active); AC50 [13]: 49.5 µM (active); AC50 [14]: 7.23 µM (active)

Question: With `CC(C)CNc1cc(NC(=O)c2cccc(F)c2)ncn1` as the compound, how does the IC50 [15] read?
Answer: The IC50 was > 21.8 µM (inactive).

Question: With `C[C@@H]1CN([C@@H](C)CO)C(=O)c2cc(-c3cncnc3)cnc2O[C@H]1CN(C)Cc1ccc(Oc2ccccc2)cc1` as the compound, how does the AC50 [16] read?
Answer: Its AC50 is 0.403 µM (active).

Question: And the IC50 [17]?
Answer: Its IC50 is > 20 µM (inactive).

Question: For `C[C@H](CO)N1C[C@H](C)[C@H](CN(C)C(=O)Nc2ccccc2)OCCCC[C@H](C)Oc2ccc(NC(=O)Nc3ccc4c(c3)OCO4)cc2C1=O`, which AC50 [18] is on record?
Answer: Its AC50 is > 52 µM (inactive).

Question: And the AC50 [19]?
Answer: Its AC50 is 36.6 µM (active).

Question: And the AC50 [20]?
Answer: Its AC50 is 25.4 µM (active).

Question: For `CC(C)(C)OC(=O)Nc1nc2ccc(C(=O)Nc3ccnc(Br)c3)cc2s1`, which CC50 [21] is on record?
Answer: The CC50 was > 300 µM (inactive).
